According to ChEMBL document CHEMBL4673385, “Discovery of Potent Inhibitors of Streptococcus mutans Biofilm with Antivirulence Activity” (ACS Med Chem Lett, 2021):
Values after ≈ are worked out from the molar mass of the structure shown. Each block holds one compound with its values, some of them ahead of it. Active and inactive are the calls of the source. The calls are words filed in the database; no cut-off is given here.

Assays:
[1] = Inhibition of Gtf in Streptococcus mutans UA159 assessed as reduction in glucans level by Coomassie blue dye based SDS-PAGE analysis
Streptococcus mutans [2] = test: Antibiofilm activity against Streptococcus mutans UA159 infected in Fischer 344 rat assessed as proximal surface score at 100 uM topically administered measured after 43 days; format: functional, organism-based; conditions: time 43.0 day
Streptococcus mutans [3] = test: Antibiofilm activity against Streptococcus mutans UA159 infected in Fischer 344 rat assessed as reduction in colony forming units at 100 uM topically administered measured after 43 days; format: functional, organism-based; conditions: time 43.0 day
Streptococcus gordonii = test: Bactericidal activity against Streptococcus gordonii DL1 assessed as reduction in bacterial growth at 100 uM after 24 hrs; format: functional
Streptococcus mutans [4] = test: Antibiofilm activity against Streptococcus mutans UA159 infected in Fischer 344 rat assessed as buccal score at 100 uM topically administered measured after 43 days; format: functional, organism-based; conditions: time 43.0 day
Streptococcus sanguinis = test: Bactericidal activity against Streptococcus sanguinis SK36 assessed as reduction in bacterial growth at 100 uM after 24 hrs; format: functional
[5] = Solubility of compound in water; format: physicochemical; conditions: water; read-out: solubility
Streptococcus mutans [6] = test: Antibiofilm activity against Streptococcus mutans UA159 infected in Fischer 344 rat assessed as sulcal score at 100 uM topically administered measured after 43 days; format: functional, organism-based; conditions: time 43.0 day
[7] = target: T1, Glucosyltransferase-SI (Streptococcus mutans serotype c (strain ATCC 700610 / UA159)) (UniProt P13470); test: Inhibition of GtfC in Streptococcus mutans UA159 assessed as reduction in glucans level by Coomassie blue dye based SDS-PAGE analysis
T1 sequence (whole entry): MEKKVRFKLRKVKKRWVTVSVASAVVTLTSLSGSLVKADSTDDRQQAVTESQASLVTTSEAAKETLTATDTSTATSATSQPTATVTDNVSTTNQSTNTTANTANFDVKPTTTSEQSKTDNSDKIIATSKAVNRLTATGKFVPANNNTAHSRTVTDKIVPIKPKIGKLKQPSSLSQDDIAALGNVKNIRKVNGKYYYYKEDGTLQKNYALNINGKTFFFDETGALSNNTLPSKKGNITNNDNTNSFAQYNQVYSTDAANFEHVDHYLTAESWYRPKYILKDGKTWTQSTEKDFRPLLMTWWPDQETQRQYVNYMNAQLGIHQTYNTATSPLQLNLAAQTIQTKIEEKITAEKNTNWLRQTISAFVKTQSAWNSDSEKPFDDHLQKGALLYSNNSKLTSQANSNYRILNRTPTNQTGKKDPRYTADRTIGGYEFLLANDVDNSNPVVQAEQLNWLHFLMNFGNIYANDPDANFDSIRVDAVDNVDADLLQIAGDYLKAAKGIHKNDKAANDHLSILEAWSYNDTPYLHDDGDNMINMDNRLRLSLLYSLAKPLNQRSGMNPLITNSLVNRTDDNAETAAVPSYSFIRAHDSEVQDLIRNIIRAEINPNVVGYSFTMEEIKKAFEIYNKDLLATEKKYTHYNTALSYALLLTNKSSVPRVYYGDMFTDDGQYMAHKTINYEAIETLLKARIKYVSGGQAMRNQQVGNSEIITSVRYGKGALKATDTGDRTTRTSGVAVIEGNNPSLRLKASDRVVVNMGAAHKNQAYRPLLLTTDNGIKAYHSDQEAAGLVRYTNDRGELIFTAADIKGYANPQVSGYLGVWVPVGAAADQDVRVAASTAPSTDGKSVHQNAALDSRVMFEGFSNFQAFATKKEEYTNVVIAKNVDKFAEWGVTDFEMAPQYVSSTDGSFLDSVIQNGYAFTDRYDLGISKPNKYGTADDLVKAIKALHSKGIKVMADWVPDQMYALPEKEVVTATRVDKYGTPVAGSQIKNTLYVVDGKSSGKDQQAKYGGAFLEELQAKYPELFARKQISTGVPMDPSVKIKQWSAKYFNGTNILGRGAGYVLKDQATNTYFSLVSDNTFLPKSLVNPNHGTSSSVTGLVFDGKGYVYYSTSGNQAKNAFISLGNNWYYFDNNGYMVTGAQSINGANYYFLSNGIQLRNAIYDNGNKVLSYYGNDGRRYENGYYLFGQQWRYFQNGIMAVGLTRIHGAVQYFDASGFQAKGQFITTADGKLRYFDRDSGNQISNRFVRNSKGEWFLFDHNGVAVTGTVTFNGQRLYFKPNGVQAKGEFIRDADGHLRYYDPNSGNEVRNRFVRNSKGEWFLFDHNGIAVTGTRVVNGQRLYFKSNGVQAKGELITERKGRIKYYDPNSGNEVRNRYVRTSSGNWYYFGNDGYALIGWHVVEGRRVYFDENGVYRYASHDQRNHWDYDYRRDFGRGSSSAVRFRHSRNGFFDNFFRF

[8] = Toxicity in Fischer 344 rat infected with Streptococcus mutans UA159 assessed as reduction in body weight at 100 uM topically administered measured after 43 days; conditions: in vivo, topical_or_ocular, 1032 h, time 43 day

Structure (SMILES): NC(=O)c1ccccc1NC(=O)c1cc2cc([N+](=O)[O-])ccc2s1
IC50 [1]: 10 µM
Activity (Streptococcus mutans [2]): Active
Activity (Streptococcus mutans [3]): inactive
Activity (Streptococcus gordonii): inactive
Activity (Streptococcus mutans [4]): Active
Activity (Streptococcus sanguinis): inactive
solubility [5]: 10 µg/mL (≈ 29.3 µM)
Activity (Streptococcus mutans [6]): Active
inhibition [7]: Active

Structure (SMILES): NC(=O)c1ccccc1NC(=O)c1cnc2ccccc2c1
Activity (Streptococcus mutans [2]): Active
Activity (Streptococcus mutans [3]): inactive
Activity (Streptococcus gordonii): inactive
Activity (Streptococcus mutans [4]): Active
Activity (Streptococcus sanguinis): inactive
Activity [8]: Non-Toxic
solubility [5]: 5 µg/mL (≈ 17.2 µM)
Activity (Streptococcus mutans [6]): Active
inhibition [7]: Active

Structure (SMILES): O=C(c1ccc(F)cc1)c1ccc(-c2[nH]c(-c3ccc([N+](=O)[O-])cc3O)nc2-c2ccccc2)cc1
inhibition [7]: Active

Structure (SMILES): CC(C)(C)OC(=O)NCc1ccccc1NC(=O)c1cc2cc([N+](=O)[O-])ccc2s1
solubility [5]: < 5 µg/mL
inhibition [7]: Active

Structure (SMILES): COC(=O)c1ccc(NC(=O)c2cc3cc([N+](=O)[O-])ccc3s2)cc1
solubility [5]: 10 µg/mL (≈ 28.1 µM)
inhibition [7]: Active

Other lines, results leading:

solubility [5]: < 5 µg/mL
inhibition [7]: Active
Structure (SMILES): NC(=O)c1cccc(NC(=O)c2cnc3ccccc3c2)c1

solubility [5]: 15 µg/mL (≈ 39.7 µM)
inhibition [7]: Active
Structure (SMILES): CC(C)(C)OC(=O)NCc1ccccc1NC(=O)c1cnc2ccccc2c1
